Measurements from PubChem BioAssay (NCI).
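All cell lines were grown in 96-well plates and treated with compound for 48 hours. Abbreviation: GI50, concentration required for 50% inhibition of growth. TGI is the concentration that stops growth completely.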

Key:
Assay in all cases: NCI anticancer screen, dose series, 48 h
OVCAR-5 ovarian = system: OVCAR-5 ovarian
HL-60(TB) leukemia = system: HL-60(TB) leukemia
786-0 renal = system: 786-0 renal
UACC-62 melanoma = system: UACC-62 melanoma
HCT-116 colon = system: HCT-116 colon
NCI-H226 lung = system: NCI-H226 lung
SW-620 colon = system: SW-620 colon
MDA-MB-468 breast = system: MDA-MB-468 breast
A498 renal = system: A498 renal
UACC-257 melanoma = system: UACC-257 melanoma
HCT-15 colon = system: HCT-15 colon
UO-31 renal = system: UO-31 renal
KM12 colon = system: KM12 colon
SF-268 CNS = system: SF-268 CNS
MDA-MB-231 breast = system: MDA-MB-231 breast
SN12C renal = system: SN12C renal
MCF7 breast = system: MCF7 breast
NCI-H522 lung = system: NCI-H522 lung
SK-MEL-2 melanoma = system: SK-MEL-2 melanoma
SNB-19 CNS = system: SNB-19 CNS
IGROV1 ovarian = system: IGROV1 ovarian
SF-295 CNS = system: SF-295 CNS
SF-539 CNS = system: SF-539 CNS
U251 CNS = system: U251 CNS
HS 578T breast = system: HS 578T breast
OVCAR-4 ovarian = system: OVCAR-4 ovarian
CAKI-1 renal = system: CAKI-1 renal
M14 melanoma = system: M14 melanoma
PC-3 prostate = system: PC-3 prostate
HCC-2998 colon = system: HCC-2998 colon
HOP-92 NSCLC = system: HOP-92 NSCLC
SK-MEL-5 melanoma = system: SK-MEL-5 melanoma
OVCAR-8 ovarian = system: OVCAR-8 ovarian
SK-MEL-28 melanoma = system: SK-MEL-28 melanoma
A549 NSCLC = system: A549 NSCLC
RXF 393 renal = system: RXF 393 renal
EKVX NSCLC = system: EKVX NSCLC
COLO 205 colon = system: COLO 205 colon
LOX IMVI melanoma = system: LOX IMVI melanoma
HOP-62 NSCLC = system: HOP-62 NSCLC
RPMI-8226 leukemia = system: RPMI-8226 leukemia
DU-145 prostate = system: DU-145 prostate
ACHN renal = system: ACHN renal
CCRF-CEM leukemia = system: CCRF-CEM leukemia
TK-10 renal = system: TK-10 renal
BT-549 breast = system: BT-549 breast
NCI-H23 lung = system: NCI-H23 lung
MDA-MB-435 = system: MDA-MB-435
MALME-3M melanoma = system: MALME-3M melanoma
NCI/ADR-RES ovarian = system: NCI/ADR-RES ovarian
MOLT-4 leukemia = system: MOLT-4 leukemia
OVCAR-3 ovarian = system: OVCAR-3 ovarian
SK-OV-3 ovarian = system: SK-OV-3 ovarian
T-47D breast = system: T-47D breast
SNB-75 CNS = system: SNB-75 CNS

`COc1ccc(-c2nc3cc(C)ccc3n2CC(=O)N=Nc2c(O)[nH]c3ccc(OC)cc23)cc1` showed a GI50 (OVCAR-5 ovarian) of 2.43 µM, a TGI (OVCAR-5 ovarian) of 8.93 µM and a GI50 (HL-60(TB) leukemia) of 1.72 µM. For the same compound, the TGI (HL-60(TB) leukemia) was 5.22 µM, the GI50 (786-0 renal) was 3.37 µM and the TGI (786-0 renal) was 11.7 µM. For the same compound, the GI50 (UACC-62 melanoma) was 1.84 µM, the TGI (UACC-62 melanoma) was 5.05 µM and the GI50 (HCT-116 colon) was 1.74 µM. For the same compound, the TGI (HCT-116 colon) was 3.27 µM, the GI50 (NCI-H226 lung) was 2 µM and the TGI (NCI-H226 lung) was 4.31 µM. For the same compound, the GI50 (SW-620 colon) was 2.11 µM, the TGI (SW-620 colon) was 5.1 µM and the GI50 (MDA-MB-468 breast) was 2.05 µM. For the same compound, the TGI (MDA-MB-468 breast) was 4.41 µM, the GI50 (A498 renal) was 11.2 µM and the TGI (A498 renal) was 24.6 µM. For the same compound, the GI50 (UACC-257 melanoma) was 2.38 µM, the TGI (UACC-257 melanoma) was 6.02 µM and the GI50 (HCT-15 colon) was 2.56 µM. For the same compound, the TGI (HCT-15 colon) was 7.51 µM, the GI50 (UO-31 renal) was 11.2 µM and the TGI (UO-31 renal) was 23.6 µM. For the same compound, the GI50 (KM12 colon) was 1.85 µM, the TGI (KM12 colon) was 3.72 µM and the GI50 (SF-268 CNS) was 2.43 µM. It also gave a TGI (SF-268 CNS) of 8.3 µM, a GI50 (MDA-MB-231 breast) of 2.04 µM and a TGI (MDA-MB-231 breast) of 4.68 µM. It also gave a GI50 (SN12C renal) of 1.8 µM, a TGI (SN12C renal) of 4.08 µM and a GI50 (MCF7 breast) of 2.01 µM. For the same compound, the TGI (MCF7 breast) was 4.96 µM, the GI50 (NCI-H522 lung) was 3.71 µM and the TGI (NCI-H522 lung) was 15.3 µM. For the same compound, the GI50 (SK-MEL-2 melanoma) was 5.39 µM, the TGI (SK-MEL-2 melanoma) was 19.7 µM and the GI50 (SNB-19 CNS) was 4.3 µM. The TGI (SNB-19 CNS) was 16.1 µM, the GI50 (IGROV1 ovarian) was 6.83 µM and the TGI (IGROV1 ovarian) was 19.8 µM. For the same compound, the GI50 (SF-295 CNS) was 3.59 µM, the TGI (SF-295 CNS) was 13.7 µM and the GI50 (SF-539 CNS) was 1.62 µM. For the same compound, the TGI (SF-539 CNS) was 3 µM, the GI50 (U251 CNS) was 2.09 µM and the TGI (U251 CNS) was 4.24 µM. It also gave a GI50 (HS 578T breast) of 2.02 µM, a TGI (HS 578T breast) of 5.15 µM and a GI50 (OVCAR-4 ovarian) of 1.84 µM. The TGI (OVCAR-4 ovarian) was 3.79 µM, the GI50 (CAKI-1 renal) was 1.93 µM and the TGI (CAKI-1 renal) was 5.45 µM. The GI50 (M14 melanoma) was 1.8 µM, the TGI (M14 melanoma) was 3.38 µM and the GI50 (PC-3 prostate) was 2.3 µM. It also gave a TGI (PC-3 prostate) of 6.65 µM, a GI50 (HCC-2998 colon) of 3.66 µM and a TGI (HCC-2998 colon) of 13.2 µM. For the same compound, the GI50 (HOP-92 NSCLC) was 1.83 µM, the TGI (HOP-92 NSCLC) was 4.07 µM and the GI50 (SK-MEL-5 melanoma) was 1.64 µM. For the same compound, the TGI (SK-MEL-5 melanoma) was 3.16 µM, the GI50 (OVCAR-8 ovarian) was 2.3 µM and the TGI (OVCAR-8 ovarian) was 5.89 µM. For the same compound, the GI50 (SK-MEL-28 melanoma) was 1.73 µM, the TGI (SK-MEL-28 melanoma) was 3.19 µM and the GI50 (A549 NSCLC) was 1.99 µM. The TGI (A549 NSCLC) was 4.43 µM, the GI50 (RXF 393 renal) was 1.48 µM and the TGI (RXF 393 renal) was 3.27 µM. For the same compound, the GI50 (EKVX NSCLC) was 3.28 µM, the TGI (EKVX NSCLC) was 12.5 µM and the GI50 (COLO 205 colon) was 2.62 µM. It also gave a TGI (COLO 205 colon) of 7.93 µM, a GI50 (LOX IMVI melanoma) of 2.27 µM and a TGI (LOX IMVI melanoma) of 5.81 µM. The GI50 (HOP-62 NSCLC) was 2.52 µM, the TGI (HOP-62 NSCLC) was 6.96 µM and the GI50 (RPMI-8226 leukemia) was 3.22 µM. It also gave a TGI (RPMI-8226 leukemia) of 14.9 µM, a GI50 (DU-145 prostate) of 3.54 µM and a TGI (DU-145 prostate) of 14.7 µM. The GI50 (ACHN renal) was 2.35 µM, the TGI (ACHN renal) was 6.23 µM and the GI50 (CCRF-CEM leukemia) was 3.6 µM. It also gave a TGI (CCRF-CEM leukemia) of 13.3 µM, a GI50 (TK-10 renal) of 3.13 µM and a TGI (TK-10 renal) of 11.9 µM. It also gave a GI50 (BT-549 breast) of 1.88 µM, a TGI (BT-549 breast) of 4.01 µM and a GI50 (NCI-H23 lung) of 2.48 µM. For the same compound, the TGI (NCI-H23 lung) was 6.88 µM, the GI50 (MDA-MB-435) was 1.88 µM and the TGI (MDA-MB-435) was 3.76 µM. For the same compound, the GI50 (MALME-3M melanoma) was 1.94 µM, the TGI (MALME-3M melanoma) was 3.52 µM and the GI50 (NCI/ADR-RES ovarian) was 2.34 µM. For the same compound, the TGI (NCI/ADR-RES ovarian) was 5.52 µM, the GI50 (MOLT-4 leukemia) was 2.65 µM and the TGI (MOLT-4 leukemia) was 8.57 µM. It also gave a GI50 (OVCAR-3 ovarian) of 1.87 µM, a TGI (OVCAR-3 ovarian) of 4.39 µM and a GI50 (SK-OV-3 ovarian) of 4.32 µM. It also gave a TGI (SK-OV-3 ovarian) of 15.6 µM, a GI50 (T-47D breast) of 2.43 µM and a TGI (T-47D breast) of 6.5 µM. It also gave a GI50 (SNB-75 CNS) of 1.49 µM and a TGI (SNB-75 CNS) of 3.35 µM.
